Tested on: HCT-116
Experiment: HCT-116 (colon) cell-based MTT proliferation assay
Details: Homo sapiens, HCT-116, 96 h, 4 days post addition of test compound, read-out: Antiproliferative Activity HCT 116 (colon) Assay IC50
Protocol: The estrogen receptor negative epithelial breast carcinoma line (MDA-MB-435) was purchased from American Type Cell Culture Collection (ATCC; Rockville, Md.) and was grown in the medium recommended by ATCC. For analysis of the effect of the test compounds on growth of these cells, the cells were plated at 2000 cells per well in a 96-well tissue culture plate, and were incubated overnight at 37° C. with 5% CO2. The next day, the test compounds were dissolved in 100% dimethyl sulfoxide (DMSO) to yield a 10 mM stock solution. Each compound was diluted with sterile medium to 1 mM in a sufficient quantity to yield a final concentration of 120 μM. The compounds were then serially diluted in medium with 1.2% DMSO. One-fourth final volume of the diluted compounds was transferred to 96 well plates. Test compounds were assayed in duplicate. DMSO was added to a row of “control cells” such that the final concentration of DMSO in each well was 0.3%. Wells to which no cells were added served as the “blank.” Wells to which no inhibitor was added served as “no inhibitor control”. The plates were returned to the incubator, and 5 days post addition of test compound, were analyzed as described below.
3-(4,5-Dimethylthiazole-2-yl)-2,5-diphenyl-2H-tetrazolium bromide (thiazolyl blue; MTT) was added to each well to yield a final concentration of 1 mg/mL. The plates were then incubated at 37° C. for 3 hours. The plates were centrifuged at 1000 rpm for 5 minutes prior to aspiration of the MTT-containing medium. The MTT-containing medium was then removed and 100 μL 100% ethanol was added to each well to dissolve the resulting formazan metabolite. To ensure complete dissolution, plates were shaken for 15 minutes at room temperature. Absorbencies were read in a microtiter plate reader (Molecular Dynamics) at a wavelength of 570 nm with a 650 nm reference. Percent inhibition was calculated by subtracting the absorbance of the blank (no cell) wells from all wells, then subtracting the division of the average absorbance of each test duplicate by the average of the controls from 1.00. Inhibitory concentrations (IC50) were determined from the linear regression of a plot of the logarithm of the concentration versus the percent inhibition.
The colon adenocarcinoma line SW480 and the colon carcinoma line HCT-116 also were obtained from the ATCC and were tested according to the same protocol provided above for MDA-MB-435 cell based assay with the following modifications. Cell line SW480 was plated at 1000 cells per well and analyzed at 6 days post addition of the test compound. Cell line HCT-116 was plated at 1000 cells per well and analyzed at 4 days post addition of test compound.

COc1cc2c(cc1F)C(c1ccccc1Cl)=Nc1c(n[nH]c1C)N2 [IVa, 5-(2-chlorophenyl)-1,2-dihydro-7-fluoro-8-methoxy-3-methyl-pyrazolo[3,4-b][1,4]benzodiazepine]
IC50: 1040 nM

— patent US7524840B2, “7,8-disubstituted pyrazolobenzodiazepines” (Hoffmann-La Roche Inc., priority 2004, dated 2009)
